In data set [1] the test system is human neutrophils. Put plainly: Rate of NETs formation in PMA-stimulated neutrophils after pre-treatment, counted by confocal microscopy. Format: cell-based. The settings on record: pre-treatment 10 μM for 30 minutes, then PMA 25 nM.
The conditions of data set [2]: bovine proteins; cited from earlier work.
Data set [3] concerns human neutrophils. In words: Specificity experiment: inhibition of NETs formation by DNA concentration in the culture supernatant. Format: cell-based. As to conditions: n=3, p<0.01, FIG. 10. How it is done: About 1 hour after the isolation of the neutrophils described in “1. Method of isolating human neutrophils” in Example 2, the neutrophils were pre-treated. On an 8-well microslide (Cat. No. ib 80826 Ibidi (registered trademark)), the neutrophils were seeded in 400 μl of culture DMEM+2% human serum Alb (serum human albumin; Product No. A9080 Sigma+4 mM L-glutamine) at a rate of about 1.0×10^5 cells/well, and stimulated with PMA (final concentration: 25 nM, stock: 10 mM in DMSO, Sigma Prod No. P8139). At thirty minutes before the stimulation, and at every one hour or every two hours after the stimulation, 200 μg/ml of human lactoferrin (stock: 100 mg/ml, 200 μl; Cat. No. SIGL6793, SIGMA) was added to perform inhibition [FIG. 2].
The culture supernatant was recovered and centrifuged at 200×g for 10 minutes, and the supernatant was transferred to a new microscopic centrifuge tube. The DNA amount was measured by use of Picogreen dsDNA assay reagent (P11496 Invitrogen) in accordance with an accompanying protocol. Treatment with human lactoferrin at one hour and two hours after the stimulation was a similar effect to the prior pre-treatment, the DNA concentration in the culture supernatant decreased, resulting in suppression of the release of the DNAs by the NETs [FIG. 2]. […]

As for `c1ccc2c(c1)[I+]c1ccccc1-2` [DPI, diphenyleneiodoniumchloride, reference compound], the “formation of the NETs at plateau, compared with stimulation merely with PMA” value in data set [1] is reported as “⅓”.

Take lactoperoxidase [reference compound]: in data set [2], the Isoelectric point was 8.0. Moreover, in data set [3], the “inhibition of the formation of the NETs” value is “Neither lactoperoxidase nor angiogenin inhibited”.
